In this data set the test system is CHO cells. Nature of the data set: Biotium XTT cell viability kit. In kind it is cell-based, Chinese hamster. As to conditions: 24 hours, medium with 5% serum. (Tetrazolium dyes change colour on reduction, which living cells bring about.)

Where only a bound is given, the exact number is not on record here.

Consider `Cc1nc(N2CCN(C(=O)c3ccco3)CC2)c2c3c(sc2n1)CC(C)(C)CC3` [Compound 24], for which the “cytotoxicity (no cytotoxicity up to)” value was more than 10 µM.

Source of the values: PMC9841585 (ACS Medicinal Chemistry Letters, 2022).
